The source of these data is US11344567B2, “Methods of treating cancer using platanoside and isomers thereof” (SHARE GAL RESEARCH AND DEVELOPMENT LTD, priority 2018, dated 2022).

Experiment [1] relates to HT-29 cell line. Description: 3D spheroid tumor formation and growth. Format: cell-based, human. To be noted: for effect on tumor formation, treatment before tumor formation: 150 µM; for effect on growing tumors, treatment after spheroid formation: HT-29 spheroids, single dose 72 h after seeding, for additional 72 hours. As for the experimental part:
The spheroid formation potential of HT29 human colon cancer cell line was evaluated in 3D nonadherent culture condition. Initially the HT29 human cells were grown as a monolayer after which they were counted, re-suspended and plated with 1,500 cells per well in a 96-well plate pre-coated with a thin layer of 1.5% agarose (w/v) in McCoy's 5A medium containing 10% FBS and incubated at 37° C. in a humidified atmosphere of 5% CO2. Cell culture media was replaced every 2-3 days with fresh medium to remove cellular debris and the spheroids that were not well-formed. After the beginning of the multicellular tumor spheroid formation, the tested compounds were added at various concentrations (0.2, 0.4 and 0.6 mg/ml) and incubated for 24, 48 and 72 h. The number and diameter of colonies within each well were photographed and counted every day under the microscope (Olympus BX-51; Olympus, Hamburg, Germany), and the images of the representative fields were captured. Each sample was analyzed in triplicate, and all the experiments were performed three times. The viability of cells growing on the spheroids was measured by the APH (acid phosphatase) assay, which was performed according to manufacturer's instructions.
The cellular assays described above were performed in a monolayer system. Although monolayer systems partially reflect the microenvironment of cancer cells, there are currently more advanced culture methods that mimic in a better way the cellular interactions by the cells comprising the tumor (Freidrich, J. et. al.; Nat. Prot. 2009, 4, 309-324). […] This assay can be applied to test whether the compounds treatment is able of impairing tumors formation or alternately to test the effect of the treatment in growing tumors. HT-29 cell line was used for this model due to its capacity to form spheroids in vitro.

In experiment [2] the test system is methicillin-resistant Staphylococcus aureus. The following applies: Ibrahim et al. 2009; cited from earlier work.
In experiment [3] the test system is leukemia. The following applies: Dimas et al. 2000; cited from earlier work.

Each structure is given as a SMILES string.

In the case of `O=C(O)/C=C/c1ccc(O)cc1` [p-coumaric acid], the “effect on tumor formation, treatment before tumor formation” value in experiment [1] is listed as “no effect”.
For `CCc1c2c(nc3ccc(OC(=O)N4CCC(N5CCCCC5)CC4)cc13)-c1cc3c(c(=O)n1C2)COC(=O)[C@]3(O)CC` [irinotecan], the “effect on growing tumors, treatment after spheroid formation” value in experiment [1] is “didn't generate any effect”.
For `C[C@@H]1O[C@@H](Oc2c(-c3ccc(O)cc3)oc3cc(O)cc(O)c3c2=O)[C@H](OC(=O)/C=C/c2ccc(O)cc2)[C@H](OC(=O)/C=C/c2ccc(O)cc2)[C@H]1O` [Platanoside, platanoside], the “anti-methicillin-resistant Staphylococcus aureus activity” value in experiment [2] is “anti-methicillin-resistant Staphylococcus aureus”. In experiment [3], the anti-leukemic activity entry was “active as an anti-leukemic agent”.
For `N.N.O=C([O-])C1(C(=O)[O-])CCC1.[Pt+2]` [carboplatin], in experiment [1], the “effect on growing tumors, treatment after spheroid formation” value is “didn't generate any effect”.
With `O=C1C[C@@H](c2ccc(O)cc2)Oc2cc(O)cc(O)c21` [naringenin], the “effect on tumor formation, treatment before tumor formation” value in experiment [1] is “no effect”.
